Measurements: patent US11497796B2, “Agents directed against a cis RGMa/neogenin interaction or lipid rafts and use of the same in methods of treatment” (UNIVERSITY HEALTH NETWORK, priority 2013, dated 2022)

B1: 4Ig: four immunoglobulin-like domains of Neogenin, amino acids 1 to 383 of Accession No. AAC59662 (SEQ ID NO:1) (protein, listed as Gallus gallus)
chain: RSGPRSPLTGSVVRTFTPFYFLVEPMDILSVRGASVIMNCSSYCETPPKIEWKKDGTLLNLVSDDRRQLLPDGSLLINSVVHSKHNKPDEGYYQCVATVESLGSIVSRTAKLTVAGLPRFTSQPELSSVYKGNSAILNCEVNVDLAPFVRWEQDRQPLSLDDRVFKLPSGALLIGNATDTDGGFYRCVIESGGTPKYSEEAELKILPDPEEPQSLVFVRQPSSLTKVTGQNAVFPCVAGGFPTPYVRWTKNGEELITEDSERFALRAGGSLLISDVTEEDVGTYTCIADNENETIEAQAELAVQVPPEFLKRPANIYAHESMDIVFECEVTGKPTPTVKWVKNGDVVIPSDYFKIVKEHNLQVLGLVKSDEGFYQCIAENDVGNAQAGAQLIILDLDVAIPTLPPTSLTSATNDHLAPATTGPLPTAPRDVVATLVSTRFIRLTWRTPVSDPQGDNLTYSIFYTKEGINRERVENTSRPGETQVMIQNLMPETVYVFRVVAQNKHGHGESSAPLKVATQPEVQLPGPAPNIRAYAGSPTSVTVTWETPLSGNGEIQNYKLYYMEKGQDSEQDVDVAGLSYTITGLKKYTEYSFRVVAYNKHGPGVSTQDVVVRTLSDVPSAAPQNLTLEARNSKSIMLHWQPPPAGTHSGQITGYKIRYRKVSRKSDVTESVGGTQLFQLIEGLERGTEYNFRIAAMTVNGTGPATDWVSAETFESDLDESRVPEVPSSLHVRPLVTSIVVSWTPPENQNIVVRGYAIGYGIGSPHAQTIKVDYKQRYYTIENLDPSSHYVITLKAFNNVGEGIPLYESAVTRPHSDTSEVDLFVINAPYTPVPDPSPMMPPVGVQASILSHDTIRITWADNSLPKNQKITDARYYTVRWKTNIPANTKYKTANATTLSYLVTGLKPNTLYEFSVMVTKGRRSSTWSMTAHGTTFELVPTSPPKDVTVVSKEGKPRTIIVNWQPPSEANGKITGYIIYYSTDVNAEIHDWVIEPVVGNRLTHQIQELTLDTPYYFKIQARNSKGMGPMSEAVQFRTPKAESSDKMPNDQASGSAGKGSRPVDVGPDYKPPLSGSNSPHGSPTSPLDSNMLLVIIVSVGVITIVIVVIVAVFCTRRTTSHQKKKRAACKSVNGSHKYKGNSKDVKPPDLWIHHERLELKPIDKSPDPNPIMTDTPIPRNSQDITPVDNSMDSNIHQRRNSYRGHESEDSMSTLAGRRGMRPKMMMPFDSQPPQPVISAHPIHSLDNPHHHFHSGSLASPTRSYLHHQVSPWPVGTSMSHSDRANSTESVRNTPSSDTMPASSSQPCADHQDPDSSSGAYLGSAQEEDAAQSLPTAHVRPSHPLKSFAVPAVPAAGSAYDPTLPSTPLLTQQAPSHPVHSVKTASIGTLGRTRPPMPVVVPSAPDVQETTRMLEDSESSYEPDELTKEMAHLEGLMKDLNAITTA
modifications: Neogenin - Accession No. AAC59662

Columns and labels:
[1] = system: retinal axons (axonal pathfinding); experiment: In ovo electroporation and DiI tracing of axonal paths; assay type: in vivo, chick; conditions: ectopic expression in the eye at E2
Protocol: Eggs (White Leghorn) were incubated at 38° C. in a high humidity chamber. A small amount of viral solution (viral titers of 1×10^8 IU/ml) was mixed with 1/10 volume of 0.25% fast green solution (Molecular Probes) and injected in the tectum at E1.5. Eggs were further incubated until E15, when a small DiI crystal (Molecular Probes) was placed in the temporo-dorsal part of the right eye. At E17, embryos were sacrificed and the tecta fixed in 4% PFA. DiI tracing was viewed under the microscope (Olympus BX61) after cutting the tecta in half. Digital Images of the tecta were taken and processed using Photoshop (Adobe). Alternatively, plasmid constructs were electroporated into the optic vesicle to restrict expression to the eye and tracing performed as above.
To study the effect of the interaction between 4Ig and N-Raft on axonal paths in vivo, 4Ig, N-Raft, and the control NRGMa^50-99 were ectopically expressed and axonal pathfinding was examined. To ensure that the treatments affected growing axons and not their environment, when electroporation was performed, the application of the electric field was narrowed to the optic vesicle at E2, thereby restricting expression to the eye and retinal axons (FIG. 3G).

[2] = system: retinal ganglion cells (RGCs); experiment: Retinal organotypic cultures (whole mounts), propidium iodide cell death; assay type: cell-based; conditions: for reduction of cell death (relative PI intensity): agent in the medium
Protocol: (A) HEK293 cells that stably express RGMa (FIG. 11) were transfected with empty plasmid (Ctrl) or Neogenin (Neo). Neogenin induced cell death (arrows) when compared to control. (B) Quantification of cell death in Neogenin-transfected cells that were incubated in BSA (Neo+Ctrl), 4Ig (1 μg/ml), N-Raft (1 μg/ml), Noggin (100 nM), or MβCD (10 mM). […] Data were average±SEM (n=3 independent experiments), *p<0.0001. (C) Representative images and (D) Quantification of cell death in chick E5 tecta electroporated with GFP- and a Neogenin-expression plasmid and then injected with N-RGMa50-99 (Ctrl; 1 μg/ml), 4Ig (1 μg/ml), or N-Raft (1 μg/ml) and subjected to TUNEL assay. […] Data were an average±SEM from 3 different tecta/conditions (*p<0.001). Bar, 100 μm. (E) Representative images and (F) Quantification of retinal whole mounts incubated for 4 days with control peptide (1 μg/ml), 4Ig (1 μg/ml), N-Raft (1 μg/ml), or MβCD (10 mM) and dead cells were stained with Propidium Iodide (PI). Images from 9 whole mounts per condition from 3 independent experiments were taken at the same intensities and the fluorescence measured using ImageJ. […] Bar, 500 μm. (G) Fluorescence micrographs of flat-mounted retinas depicting Fluorogold-labeled retinal ganglion cells (RGCs) in injured retinas at 14 days following axotomy. Control retinas (Ctrl) had few surviving RGCs. 4Ig, N-raft or MβCD increased cell survival. Bar, 200 μm. (H) Representations of the retinal areas selected in our analyses. […] Data were average±SEM (n=6 eyes), *p<0.01.
For this study, retinal organotypic cultures were used, in which axotomy of retinal ganglion cells (RGCs) deprived the cells of tropic factors and induced apoptosis. Cell death was detected using propidium iodide (PI) and all images were taken at the same intensity with the RGC-layer in focus. Cell death was gauged by measuring the relative PI intensity of whole mounts.

[3] = system: retinal ganglion cells (RGCs); experiment: RGC survival in vivo 14 days after axotomy; set-up: species or system rat; conditions: for increase of RGC survival vs. control / RGC survival: injected intra-ocularly, 14 days after axotomy; for RGC survival: control 361±19
[4] = system: corticospinal tract axons; experiment: Spinal cord injury, anterograde axonal tracing of the corticospinal tract with BDA; assay type: in vivo, rat; conditions: for maximal distance of labeled fibers caudal to the lesion site: 4IG IV or MBCD IP; for average length of the longest axon: BDA tracing post-SCI, respective controls 18±7 and 128±118 μm
Protocol: To visualize axons from the CST, anterograde axonal tracing with BDA was performed 6 weeks after SCI following completion of the functional assessment. Animals (n=3-4) from each group were randomly selected for BDA injection. Under deep anesthesia with 2% isofluorane with 1:2 NO:O2, rats were positioned in a stereotaxic frame and craniotomy was performed bilaterally to expose the sensorimotor cortex. BDA (10%, 10,000 MW; Invitrogen (Life Technologies)) was dissolved in 0.01M PBS and injected at 6 sites in each sensorimotor cortex using the following coordinates in reference to bregma: 1) 0.5 mm posterior and 1 mm lateral, 2) 0.5 mm posterior and 2 mm lateral, 3) 1 mm posterior and 1 mm lateral, 4) 1 mm posterior and 2 mm lateral, 5) 1.5 mm posterior and 1 mm lateral, 6) 1.5 mm posterior and 2 mm lateral. At each site, 1 μl of BDA was injected 1.2 mm from the surface of the cortex. Injections were made stereotactically with the aid of an operating microscope using a motorized microinjector at a rate of 0.5 μl/min with a 10 μl Hamilton syringe and a 32-gauge needle. The needle was left in place for an additional 2 min after injection to prevent leakage and the skin was closed with 6-0 Vicryl. Animals were allowed to survive for 3 more weeks and then intracardially perfused with 4% paraformaldehyde in 0.1 M PBS. BDA tissue including a 1.5 cm segment of tissue encompassing the lesion site was excised and processed as either 20 μm cryosections on slides or free-floating 30 μm sections. Free-floating sections were collected in 24-well plates containing PBS. Sections were pre-treated with 1% H2O2 in methanol for 10 min at RT, rinsed with PBS containing 0.5% Triton X for 30 min, and incubated in avidin-biotin peroxidase complex (Vectostain Elite ABC Kit Standard, Vector Laboratories, Burlington, ON, Canada) for 1 h at RT. Slides were washed with PBS, and then incubated with fluorescent Alexa-488 goat anti-mouse secondary antibody (1:500; Invitrogen (Life Technologies)) for 1 h at RT and coverslipped with Vectashield mounting medium containing DAPI (4′, 6-diamidino-2-phenyl-indole) (Vector Laboratories, Burlington, Ontario, Canada) nuclear counterstain.

Molecule | electroporations that caused aberrant axonal paths [1] [%] | reduction of cell death (relative PI intensity) [2] | increase of RGC survival vs. control [3] | RGC survival [3] [cells/mm^2] | enhancement of cell survival vs. control ([2]; perturbing lipid rafts) | increase of RGC survival ([3]; systemic application (intraperitoneal, IP)) | maximal distance of labeled fibers caudal to the lesion site [4] | average length of the longest axon [4] [μm] | fiber length at 6 weeks compared to 4 weeks following injury ([4]; IV-injection)
N-Raft: peptide spanning amino acids 28-73 of RGMa (SEQ ID NO:2) (SPCKILKCNSEFWAATSGSHHLGAEETPEFCTALRAYAHCTRRTAR; N-Raft - amino acids 28-73 of RGMa) | 85.7 | about 40% | about 2 fold | 652±24 |  |  |  |  | 
methyl-β-cyclodextrin [MβCD, reference compound] |  |  |  |  | about 50% | about 2 fold | about 4 mm | 2195±335 | 
B1 | 100 | about 40% | about 2 fold | 682±21 |  |  | about 4 mm | 2875±228 | significantly longer at 6 weeks
